The values that follow come from US5908924A, “Cloning and expression of the gene encoding thermoanaerobacter ethanolicus 39E secondary-alcohol dehydrogenase and enzyme biochemical characterization” (Michigan State University, priority 1997, dated 1999).

For data set [1], the system named is T. brockii 2° Adh. The settings on record: sulfhydryl modification by p-chloromercuribenzoate; cited from earlier work.
Data set [2] addresses T1, recombinant T. ethanolicus 2° Adh (Thermoanaerobacter pseudethanolicus, UniProt B0KBL1).
T1 sequence (B0KBL1 2-353): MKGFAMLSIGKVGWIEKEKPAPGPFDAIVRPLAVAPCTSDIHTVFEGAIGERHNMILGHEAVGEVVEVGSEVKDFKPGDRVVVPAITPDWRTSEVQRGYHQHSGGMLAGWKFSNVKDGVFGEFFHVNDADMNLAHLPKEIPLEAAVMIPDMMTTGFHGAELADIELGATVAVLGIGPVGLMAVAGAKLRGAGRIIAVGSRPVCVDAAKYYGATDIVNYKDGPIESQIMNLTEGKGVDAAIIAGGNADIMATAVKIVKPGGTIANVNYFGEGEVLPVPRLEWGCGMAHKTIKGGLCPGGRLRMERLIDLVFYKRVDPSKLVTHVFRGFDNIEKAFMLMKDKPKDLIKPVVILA
As to the kind of experiment: chemical modification (DTNB, DEPC) and reactivation by DTT with metal salts or EDTA. The format is biochemical, Thermoanaerobacter ethanolicus 39E. The settings on record: for effect on enzyme reactivation by DTT after DTNB inactivation: metal salts 0.01 mM to 1.0 mM, EDTA 0.5 mM to 3.0 mM. Further details: homotetramer; activity recovery of DTNB-inactivated enzyme with DTT plus zinc: dose or concentration left out as unconfirmed. Here is the method: Cysteine residues were reversibly modified using dithionitrobenzoate (DTNB) at 25° C. and 60° C.. […] Histidine residues were chemically modified with diethylpyrocarbonate (DEPC) by incubation with 20 mM or 40 mM DEPC in 50 mM phosphate buffer (pH 6.0) at 25° C. for 1.0 h and the reaction was quenched by addition of 0.5×volume of 0.5 M imidazole (pH 6.5).

Data set [3] deals with T1, recombinant T. ethanolicus 2° Adh. As to the kind of experiment: standard 2° Adh activity assay (NADP+ reduction coupled to alcohol oxidation at 60° C.), Kmapp and Vmaxapp. Particulars: for Vmaxapp / Km: 60° C.; for Km: read-out: Kmapp.
Protocol: (§2) The enzyme was incubated at 55° C. for 15 min prior to activity determination unless otherwise indicated. Assays to determine Kmapp and Vmaxapp were conducted at 60° C. with substrate concentrations between 20×Kmapp and 0.2×Kmapp. Kinetic parameters were calculated from nonlinear best fits of the data to the Michaelis-Menten equation using Kinzyme software [26].
The conditions of data set [4]: cited from earlier work; for time to complete inactivation: at 70° C.
Substrate in data set [5]: NC(=O)c1ccc[n+]([C@@H]2O[C@H](COP(=O)([O-])OP(=O)(O)OC[C@H]3O[C@@H](n4cnc5c(N)ncnc54)[C@H](OP(=O)(O)O)[C@@H]3O)[C@@H](O)[C@H]2O)c1
The data set can be described thus: purified protein, by the assay type. The settings on record: other: 60° C.
Protocol: as §2

A short description of data set [6]: 2° Adh thermostability: residual activity after timed incubation at the desired temperatures. The format is physicochemical. As for the experimental part:
(§1) 2° Adh thermostability was measured as the residual activity after timed incubation at the desired temperatures. Thermal inactivation was stopped by incubation for 30 min at 25° C., and samples were prepared for activity assays by preincubation at 55° C. for 15 min. Incubations were performed in […] (cat. #72.733.050, Sarstedt; Newton, N.C.) using […] protein in […]. Activity was determined using the unfractionated samples. The temperature effect on enzyme activity was studied using the substrates propan-2-ol or ethanol at 10×Kmapp concentrations.

Data set [7] can be described thus: 2° Adh activity: standard assay and temperature effect on enzyme activity (Arrhenius plots). The format is biochemical. Particulars: for Arrhenius plot discontinuity temperature: enzyme preincubated at 0° C. or 25° C. As for the experimental part:
as §1
To study the effect of enzyme preincubation temperature on enzyme reaction rates, the 2° Adh was incubated at 0° C., 25° C., or 55° C. for 15 min prior to activity determinations in the temperature range 30-90° C. Tris-HCl buffer pH values were adjusted at 25° C. to be pH 8.0 at the temperature they were used (thermal correction factor=-0.031 ΔpH °C.^-1). The statistical significance of the differences between the Arrhenius plot slopes above and below the discontinuity temperatures was determined by covariance analysis.

“Also recorded” adds a separate entry of the source. Like-named read-outs stand apart in the source and are kept apart here.

As to `[Cl-].[Cl-].[Zn+2]` [ZnCl2], the “inactivation and recovery of activity of T. brockii 2° Adh” value in data set [1] is “recovered activity only in the presence of ZnCl2”. Moreover, the “activity recovery of DTNB-inactivated enzyme with DTT plus zinc” value in data set [2] (in the presence of ZnCl2) is given as “up to 48%”.
Take `CCOC(=O)OC(=O)OCC` [DEPC, diethylpyrocarbonate]: the “enzyme inactivation by modification of histidine residues” value in data set [2] (20 mM or 40 mM DEPC, pH 6.0, 25° C., 1.0 h) is listed as “completely inactivated; also recorded: complete enzyme inactivation”.
As to `[Ca+2].[Cl-].[Cl-]` [CaCl2], the “effect on enzyme reactivation by DTT after DTNB inactivation” value (“effect on enzyme reactivation by DTT” below) in data set [2] was “did not affect enzyme reactivation by DTT”.
Take `[Cl-].[Cl-].[Co+2]` [CoCl2]: in data set [2] (60° C.), the “recovered activity of DTNB-inactivated enzyme with DTT plus added metal salt, of the initial activity” value was 10%.
Consider `O=S(=O)([O-])[O-].[Cd+2]` [CdSO4], for which the “effect on enzyme reactivation by DTT” value in data set [2] was “did not affect enzyme reactivation by DTT”.
For the molecule `[Cl-].[Na+]` [NaCl], in data set [2], the “effect on enzyme reactivation by DTT” value is given as “did not affect enzyme reactivation by DTT”.
Consider `O[C@H](CS)[C@H](O)CS` (racemic) [DTT, dithiothreitol], for which the “recovery of initial activity of DTNB-inactivated enzyme” value in data set [2] (60° C., DTT, no added metal) is 34%.
Regarding `CCO` [ethanol], in data set [3], the Vmaxapp is recorded as 10 U mg^-1 and the Km amounted to 47000 µM. Besides, in data set [3] (higher than for propan-2-ol), the “Kmapp toward the 1° alcohol relative to the 2° alcohol” value is ~43 fold.
On to `[Cl][Mn][Cl]` [MnCl2], for which, in data set [2], the “effect on enzyme reactivation by DTT” value is on record as “did not affect enzyme reactivation by DTT”.
Still for that read-out and setting: the value for `[Cl][Fe][Cl]` [FeCl2] was “did not affect enzyme reactivation by DTT”.
As to NAD(H), the “NAD(H) dependent activity” value in data set [3] was “no NAD(H) dependent activity was detected”.
As for `O=C([O-])CN(CCN(CC(=O)[O-])CC(=O)O)CC(=O)[O-].[Na+].[Na+].[Na+]` [EDTA, (ethylenedinitrilo) tetraacetic acid trisodium salt], the “effect on enzyme reactivation by DTT” value in data set [2] (trisodium salt) is recorded as “did not affect enzyme reactivation by DTT; also recorded: inability of EDTA to reduce the rate of reactivation”.
`[Cl-].[Cl-].[Mg+2]` [MgCl2]: the “effect on enzyme reactivation by DTT” value in data set [2] is “did not affect enzyme reactivation by DTT”.
Consider `O=C(O)c1cc[c]([Hg][Cl])cc1` [p-chloromercuribenzoate], for which the “inactivation and recovery of activity of T. brockii 2° Adh” value in data set [1] is “inactivated”.
On to `[Cl][Ni][Cl]` [NiCl2], for which the “recovered activity of DTNB-inactivated enzyme with DTT plus added metal salt, of the initial activity” value in data set [2] (60° C.) turned out to be 15%.
`CC(C)O` [propan-2-ol]: in data set [3], the Vmaxapp is on record as 47 U mg^-1 and the Km was 1100 µM.

B1: recombinant T. ethanolicus 2° Adh (Thermoanaerobacter pseudethanolicus ATCC 33223) (protein)
chain: MKGFAMLSIGKVGWIEKEKPAPGPFDAIVRPLAVAPCTSDIHTVFEGAIGERHNMILGHEAVGEVVEVGSEVKDFKPGDRVVVPAITPDWRTSEVQRGYHQHSGGMLAGWKFSNVKDGVFGEFFHVNDADMNLAHLPKEIPLEAAVMIPDMMTTGFHGAELADIELGATVAVLGIGPVGLMAVAGAKLRGAGRIIAVGSRPVCVDAAKYYGATDIVNYKDGPIESQIMNLTEGKGVDAAIIAGGNADIMATAVKIVKPGGTIANVNYFGEGEVLPVPRLEWGCGMAHKTIKGGLCPGGRLRMERLIDLVFYKRVDPSKLVTHVFRGFDNIEKAFMLMKDKPKDLIKPVVILA
B1: the “activity retained after incubation” value in data set [4] (incubation for 30 minutes at 91° C.) is reported as 40%. Moreover, in data set [5], the Km worked out at 11 µM.

B2: T. ethanolicus 39E 2° Adh: thermophilic NADP(H)-dependent secondary-alcohol dehydrogenase of Thermoanaerobacter ethanolicus 39E (SEQ ID NO: 2), adhB gene expressed in E. coli, homotetramer (protein)
chain: MKGFAMLSIGKVGWIEKEKPAPGPFDAIVRPLAVAPCTSDIHTVFEGAIGERHNMILGHEAVGEVVEVGSEVKDFKPGDRVVVPAITPDWWTSEVQRGYHQHSGGMLAGWKFSNVKDGVFGEFFHVNDADMNLAHLPKEIPLEAAVMIPDMMTTGFHGAELADIELGATVAVLGIGPVGLMAVAGAKLRGAGRIIAVGSRPVCVDAAKYYGATDIVNYKDGPIESQIMNLTEGKGVDAAIIAGGNADIMATAVKIVKPGGTIANVNYFGEGEVLPVPRLEWGCGMAHKTIKGGLCPGGRLRMERLIDLVFYKPVDPSKLVTHVFQGFDNIEKAFMLMKDKPKDLIKPVVILA
As to B2, the “thermostability and thermophilicity compared with other 2° Adhs” value in data set [6] is “more thermostable and thermophilic”. Moreover, in data set [6] (at 90° C., recombinant enzyme), the half-life was 1.7 h. Moreover, the “time for which detectable activity was retained” value in data set [6] (incubated at 90° C.) is on record as “retained detectable activity for more than one hour”. The “activity retained after incubation” value in data set [6] (incubation for more than one hour at 90° C.) is 100%. For the same molecule, the “difference between activation energies above and below the discontinuity (Δ), ethanol oxidation relative to propan-2-ol oxidation” value in data set [7] is given as “at least 3 fold”. This molecule also returned an initial activity in data set [7] (before DTNB modification) of 54±3.0 U mg^-1. For the same molecule, the Arrhenius plot form entry in data set [7] (ethanol oxidation, enzyme incubated at 55° C. prior to assay (FIG. 2B)) was “distinct discontinuity”; in data set [7] (propan-2-ol oxidation, enzyme incubated at 55° C. prior to assay), “linear from 25 °C to 90 °C”. Besides, the figures for the “Arrhenius plot discontinuity temperature” value in data set [7] (ethanol oxidation) and in data set [7] (propan-2-ol oxidation) were ~ 46 °C and ~ 55 °C, respectively. Besides, in data set [7] (propan-2-ol oxidation, recombinant enzyme (FIG. 2A)), the “temperature range of activity” value is “detected below 25 °C and increased to beyond 90 °C”.

B3: C. beijerinckii 2° Adh: mesophilic NADP(H)-dependent secondary-alcohol dehydrogenase of Clostridium beijerinckii (protein, UniProt P25984 1-351, looked up)
NADP-dependent isopropanol …: MKGFAMLGINKLGWIEKERPVAGSYDAIVRPLAVSPCTSDIHTVFEGALGDRKNMILGHEAVGEVVEVGSEVKDFKPGDRVIVPCTTPDWRSLEVQAGFQQHSNGMLAGWKFSNFKDGVFGEYFHVNDADMNLAILPKDMPLENAVMITDMMTTGFHGAELADIQMGSSVVVIGIGAVGLMGIAGAKLRGAGRIIGVGSRPICVEAAKFYGATDILNYKNGHIVDQVMKLTNGKGVDRVIMAGGGSETLSQAVSMVKPGGIISNINYHGSGDALLIPRVEWGCGMAHKTIKGGLCPGGRLRAEMLRDMVVYNRVDLSKLVTHVYHGFDHIEEALLLMKDKPKDLIKAVVIL
As to B3, the “time to complete inactivation” value in data set [4] and in data set [4] (listed as C. beijerinckii) was ≤ 10 min throughout.

Usually half-life stands for how long it takes for the measured level to halve.
